Patent US9296758B2, “2-quinolinyl-acetic acid derivatives as HIV antiviral compounds” (GILEAD SCIENCES, INC., priority 2010, dated 2016)

Tested on: HIV-IIIb
Experiment: Test A: Antiviral Assays in MT4 Cells
Assay type: cell-based
Conditions: MT-4 cells infected with HIV-IIIb (0.004 m.o.i.), 5 days of incubation, CellTiter-Glo chemiluminescence readout
Experimental: Test A: Antiviral Assays in MT4 Cells For the antiviral assay utilizing MT-4 cells, 0.4 μL of 189X test concentration of 3-fold serially diluted compound in DMSO was added to 40 μL of cell growth medium (RPMI 1640, 10% FBS, 1% penicillin/Streptomycin, 1% L-Glutamine, 1% HEPES) in each well of 384-well assay plates (10 concentrations) in quadruplicate. 1 mL aliquots of 2×10e6 MT-4 cells are pre-infected for 1 and 3 hrs respectively, @ 37° C. with 25 μL (MT4) or of either cell growth medium (mock-infected) or a fresh 1:250 dilution of an HIV-IIIb concentrated ABI stock (0.004 m.o.i. for MT4 cells). Infected and uninfected cells are diluted in cell growth medium and 35 uL of 2000 (for MT4) cells is added to each well of the assay plates. Assay plates were then incubated in a 37° C. incubator. After 5 days of incubation, 25 μl of 2× concentrated CellTiter-Glo™ Reagent (catalog #G7573, Promega Biosciences, Inc., Madison, Wis.) was added to each well of the assay plate. Cell lysis was carried out by incubating at room temperature for 2-3 min and then chemiluminescence was read using the Envision reader (PerkinElmer).

[1] = Human immunodeficiency virus 1, IIIB, MT4, 120 h

Molecule `Cc1cc2c(ccc3nccn32)c(-c2ccc(Cl)cc2)c1[C@H](OC(C)(C)C)C(=O)O` [Compound 62, (S)-2-tert-Butoxy-2-(6-(4-chlorophenyl)-8-methylimidazo[1,2-a]quinolin-7-yl)acetic acid] has an EC50 [1] of 72 nM.
`CCOCc1ccc2c(-c3ccc(Cl)cc3)c([C@H](OC(C)(C)C)C(=O)O)c(C)cc2n1` [Compound 15, (S)-2-tert-butoxy-2-(5-(4-chlorophenyl)-2-(ethoxymethyl)-7-methylquinolin-6-yl)acetic acid] was tested, and the EC50 [1] was 334 nM.
For `Cc1cc2nc(C(=O)N(C)C)ccc2c(-c2ccc(Cl)cc2)c1[C@H](OC(C)(C)C)C(=O)O` [Compound 16, (S)-2-tert-Butoxy-2-(5-(4-chlorophenyl)-2-(dimethylcarbamoyl)-7-methylquinolin-6-yl)acetic acid], the EC50 [1] was 220 nM.
`Cc1cc2nc(N(C)CC(C)C)ccc2c(-c2ccc3c4c(ccnc24)CCO3)c1[C@H](OC(C)(C)C)C(=O)O` [Compound 92, (S)-2-tert-butoxy-2-((R)-5-(2,3-dihydropyrano[4,3,2-de]quinolin-7-yl)-2-(isobutyl(methyl)amino)-7-methylquinolin-6-yl)acetic acid] was tested, and the EC50 [1] was 300 nM.
With `Cc1cc2nc(C#CC3CC3)ccc2c(-c2ccc(Cl)cc2)c1[C@H](OC(C)(C)C)C(=O)O` [Compound 38, (S)-2-tert-butoxy-2-(5-(4-chlorophenyl)-2-(cyclopropylethynyl)-7-methylquinolin-6-yl)acetic acid] the EC50 [1] was 68 nM.
Work on `CC#Cc1ccc2c(-c3ccc4c5c(ccnc35)CCO4)c([C@H](OC(C)(C)C)C(=O)O)c(C)cc2n1` (atropisomer, axis not shown) [Compound 44, (S)-2-tert-Butoxy-2-((R)-5-(2,3-dihydropyrano[4,3,2-de]quinolin-7-yl)-7-methyl-2-(prop-1-ynyl)quinolin-6-yl)acetic acid] yielded an EC50 [1] of 18 nM.
`Cc1ccc2c(-c3ccc(-c4ccccc4)cc3)c(C(OC(C)(C)C)C(=O)O)c(C)cc2n1` (stereo not shown) [Compound 19, 2-(5-(Biphenyl-4-yl)-2,7-dimethylquinolin-6-yl)-2-tert-butoxyacetic acid] was tested, and the EC50 [1] was 53000 nM.
Molecule `Cc1cc2nc(N3CCC3)ccc2c(-c2ccc3c4c(ccnc24)CCO3)c1[C@H](OC(C)(C)C)C(=O)O` (atropisomer, axis not shown) [Compound 95, (S)-2-((R)-2-(azetidin-1-yl)-5-(2,3-dihydropyrano[4,3,2-de]quinolin-7-yl)-7-methylquinolin-6-yl)-2-tert-butoxyacetic acid] has an EC50 [1] of 54 nM.
Molecule `CCC(C)c1ccc2c(-c3ccc4c5c(ccnc35)CCO4)c([C@H](OC(C)(C)C)C(=O)O)c(C)cc2n1` (stereo partly drawn) [Compound 49, (2S)-2-tert-Butoxy-2-((5R)-2-sec-butyl-5-(2,3-dihydropyrano[4,3,2-de]quinolin-7-yl)-7-methylquinolin-6-yl)acetic acid] has an EC50 [1] of 27 nM.
`Cc1cc2c(ccc3nc(C(C)C)cn32)c(-c2ccc3c4c(ccnc24)CCO3)c1[C@H](OC(C)(C)C)C(=O)O` [Compound 60, (S)-2-tert-Butoxy-2-((R)-6-(2,3-dihydropyrano[4,3,2-de]quinolin-7-yl)-2-isopropyl-8-methylimidazo[1,2-a]quinolin-7-yl)acetic acid] gave an EC50 [1] of 305 nM.
`Cc1ccc2c(-c3ccc4c5c(ccnc35)CCO4)c([C@H](OC(C)(C)C)C(=O)O)c(C)cc2n1` [Compound 23, (S)-2-tert-Butoxy-2-((S)-5-(2,3-dihydropyrano[4,3,2-de]quinolin-7-yl)-2,7-dimethylquinolin-6-yl)acetic acid] was tested, and the EC50 was 26200 nM.
`Cc1cc2nc(-c3ccncc3)ccc2c(-c2ccc3c4c(ccnc24)CCO3)c1[C@H](OC(C)(C)C)C(=O)O` (atropisomer, axis not shown) [Compound 75, (S)-2-tert-Butoxy-2-((R)-5-(2,3-dihydropyrano[4,3,2-de]quinolin-7-yl)-7-methyl-2-(pyridin-4-yl)quinolin-6-yl)acetic acid] gave an EC50 [1] of 38 nM.
Molecule `Cc1cc2nc(C(C)C)ccc2c(-c2ccc(Cl)cc2)c1[C@H](OC(C)(C)C)C(=O)O` [Compound 90, (S)-2-tert-butoxy-2-(5-(4-chlorophenyl)-2-isopropyl-7-methylquinolin-6-yl)acetic acid] has an EC50 [1] of 67 nM.
`Cc1cc2nc(-c3ccncc3)ccc2c(-c2ccc(Cl)cc2)c1[C@H](OC(C)(C)C)C(=O)O` [Compound 73, (S)-2-tert-butoxy-2-(5-(4-chlorophenyl)-7-methyl-2-(pyridin-4-yl)quinolin-6-yl)acetic acid] gave an EC50 [1] of 247 nM.
For `Cc1ccc2c(-c3ccc(Cl)cc3Cl)c([C@H](OC(C)(C)C)C(=O)O)c(C)cc2n1` [Compound 5J, (S)-2-tert-butoxy-2-((S)-5-(2,4-dichlorophenyl)-2,7-dimethylquinolin-6-yl)acetic acid], the EC50 was 19 nM.
`Cc1cc2nc(-c3ccn[nH]3)ccc2c(-c2ccc3c4c(ccnc24)CCO3)c1[C@H](OC(C)(C)C)C(=O)O` (atropisomer, axis not shown) [Compound 71, (S)-2-tert-butoxy-2-((R)-5-(2,3-dihydropyrano[4,3,2-de]quinolin-7-yl)-7-methyl-2-(1H-pyrazol-5-yl)quinolin-6-yl)acetic acid] gave an EC50 [1] of 118 nM.
Molecule `Cc1cc2nc(-c3ccccn3)ccc2c(-c2ccc(Cl)cc2)c1[C@H](OC(C)(C)C)C(=O)O` [Compound 79, (S)-2-tert-butoxy-2-(5-(4-chlorophenyl)-7-methyl-2-(pyridin-2-yl)quinolin-6-yl)acetic acid] has an EC50 [1] of 86 nM.
`Cc1cc2c(ccc3nnnn32)c(-c2ccc(Cl)cc2)c1[C@H](OC(C)(C)C)C(=O)O` [Compound 64, (S)-2-tert-butoxy-2-(6-(4-chlorophenyl)-8-methyltetrazolo[1,5-a]quinolin-7-yl)acetic acid] was tested, and the EC50 [1] was 290 nM.
`COC(=O)c1ccc2c(-c3ccc(Cl)cc3)c([C@H](OC(C)(C)C)C(=O)O)c(C)cc2n1` [Compound 12, (S)-2-tert-Butoxy-2-(5-(4-chlorophenyl)-2-(methoxycarbonyl)-7-methylquinolin-6-yl)acetic acid] was tested, and the EC50 [1] was 210 nM.
`Cc1cc2[nH]c(=O)ccc2c(-c2ccc3c4c(ccnc24)CCO3)c1[C@H](OC(C)(C)C)C(=O)O` [Compound 97, (S)-2-tert-Butoxy-2-((R)-5-(2,3-dihydropyrano[4,3,2-de]quinolin-7-yl)-7-methyl-2-oxo-1,2-dihydroquinolin-6-yl)acetic acid] showed an EC50 [1] of 898 nM.
`Cc1cc2nc(N(C)C)ccc2c(-c2ccc3c4c(ccnc24)CCO3)c1[C@H](OC(C)(C)C)C(=O)O` [Compound 96, (S)-2-tert-butoxy-2-((R)-5-(2,3-dihydropyrano[4,3,2-de]quinolin-7-yl)-2-(dimethylamino)-7-methylquinolin-6-yl)acetic acid] showed an EC50 [1] of 37 nM.
Molecule `Cc1cc2nc(C3CC3)ccc2c(-c2ccc3c4c(ccnc24)CCO3)c1[C@H](OC(C)(C)C)C(=O)O` (atropisomer, axis not shown) [Compound 58, (S)-2-tert-Butoxy-2-((R)-2-cyclopropyl-5-(2,3-dihydropyrano[4,3,2-de]quinolin-7-yl)-7-methylquinolin-6-yl)acetic acid] has an EC50 [1] of 14 nM.
`Cc1cc2ncccc2c(-c2ccc(Cl)cc2)c1[C@H](OC(C)(C)C)C(=O)O` [Compound 3L, (S)-2-tert-butoxy-2-(5-(4-chlorophenyl)-7-methylquinolin-6-yl)acetic acid] showed an EC50 [1] of 1060 nM.
Molecule `Cc1cc2nc(CCC3CC3)ccc2c(-c2ccc(Cl)cc2)c1[C@H](OC(C)(C)C)C(=O)O` [Compound 39, (S)-2-tert-butoxy-2-(5-(4-chlorophenyl)-2-(2-cyclopropylethyl)-7-methylquinolin-6-yl)acetic acid] has an EC50 [1] of 11 nM.
`Cc1cc2nc(-n3ccnc3)ccc2c(-c2ccc(Cl)cc2)c1[C@H](OC(C)(C)C)C(=O)O` [Compound 91, (S)-2-tert-Butoxy-2-(5-(4-chlorophenyl)-2-(1H-imidazol-1-yl)-7-methylquinolin-6-yl)acetic acid] gave an EC50 [1] of 73 nM.
Work on `Cc1cccnc1-c1ccc2c(-c3ccc4c5c(ccnc35)CCO4)c([C@H](OC(C)(C)C)C(=O)O)c(C)cc2n1` [Compound 106, (S)-2-tert-Butoxy-2-((R)-5-(2,3-dihydropyrano[4,3,2-de]quinolin-7-yl)-7-methyl-2-(3-methylpyridin-2-yl)quinolin-6-yl)acetic acid] yielded an EC50 of 25 nM.
`Cc1ccc2c(-c3ccc(Cl)cc3Cl)c([C@H](OC(C)(C)C)C(=O)O)c(C)cc2n1` [Compound 104] was tested, and the EC50 was 720 nM.
Work on `Cc1ccc2c(-c3ccc4c(c3Cl)NCCO4)c([C@H](OC(C)(C)C)C(=O)O)c(C)cc2n1` (atropisomer, axis not shown) [Compound 105] yielded an EC50 of 105 nM.
`Cc1cc2cccnc2c(-c2ccc(Cl)cc2)c1[C@H](OC(C)(C)C)C(=O)O` [Compound 4J, (S)-2-tert-butoxy-2-(8-(4-chlorophenyl)-6-methylquinolin-7-yl)acetic acid] was tested, and the EC50 [1] was 543 nM.
Molecule `Cc1cc2nc(-n3ccnc3)ccc2c(-c2ccc3c4c(ccnc24)CCO3)c1[C@H](OC(C)(C)C)C(=O)O` [Compound 98, (S)-2-tert-butoxy-2-((R)-5-(2,3-dihydropyrano[4,3,2-de]quinolin-7-yl)-2-(1H-imidazol-1-yl)-7-methylquinolin-6-yl)acetic acid] has an EC50 [1] of 251 nM.
For `Cc1ccc2c(-c3ccc(Cl)cc3)c([C@H](OC(C)(C)C)C(=O)O)c(C)cc2n1` [Compound 2K, (S)-2-tert-butoxy-2-(5-(4-chlorophenyl)-2,7-dimethylquinolin-6-yl)acetic acid], the EC50 [1] was 55 nM.
